Experimental data as given in patent US6737383B1, “Herbicidal oxadiazolidines” (priority 1999, dated 2004).

Tests used:
soybean = assay: Test B pre/postemergence soybean; assay type: in vivo, Glycine max
Summary of the method: (§1)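 Herbicidal effect was estimated by eye on a ten-point control scale after plants spent twelve to sixteen days in a greenhouse following soil or foliar treatment. Foliar sprays targeted plants at one to four leaves; all doses were formulated in a non-phytotoxic solvent with surfactant.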

cocklebur = assay: Test B pre/postemergence cocklebur; assay type: in vivo, Xanthium strumarium
Summary of the method: as §1

wild oat = assay: Test B pre/postemergence wild oat; assay type: in vivo, Avena fatua
Summary of the method: as §1

giant foxtail = assay: Test B pre/postemergence giant foxtail; assay type: in vivo, Setaria faberii
Summary of the method: as §1

sugar beet = assay: Test B pre/postemergence sugar beet; assay type: in vivo, Beta vulgaris
Summary of the method: as §1

blackgrass = assay: Test B pre/postemergence blackgrass; assay type: in vivo, Alopecurus myosuroides
Summary of the method: as §1

velvetleaf = assay: Test B pre/postemergence velvetleaf; assay type: in vivo, Abutilon theophrasti
Summary of the method: as §1

bedstraw = assay: Test B pre/postemergence bedstraw; assay type: in vivo, Galium aparine; conditions: Preemergence; for Plant response rating, Bedstraw: Rate 125 g/ha
Summary of the method: as §1

pigweed = assay: Test B pre/postemergence pigweed; assay type: in vivo, Amaranthus retroflexus
Summary of the method: as §1

crabgrass = assay: Test B pre/postemergence crabgrass; assay type: in vivo, Digitaria sanguinalis
Summary of the method: as §1

morningglory = assay: Test B pre/postemergence morningglory; assay type: in vivo, Ipomoea hederacea
Summary of the method: as §1

rape = assay: Test B pre/postemergence rape; assay type: in vivo, Brassica napus
Summary of the method: as §1

wheat = assay: Test B pre/postemergence wheat; assay type: in vivo, Triticum aestivum
Summary of the method: as §1

corn = assay: Test B pre/postemergence corn; assay type: in vivo, Zea mays
Summary of the method: as §1

surinam grass = assay: Test B pre/postemergence surinam grass; assay type: in vivo, Brachiaria decumbens
Summary of the method: as §1

purple nutsedge = assay: Test B pre/postemergence purple nutsedge; assay type: in vivo, Cyperus rotundus
Summary of the method: as §1

[1] = Postemergence, Rate 62 g/ha, scale 0 to 10, 0 is no effect, 10 is complete control
[2] = Postemergence, Rate 125 g/ha, scale of 0 to 10 where 0 is no effect and 10 is complete control
[3] = Preemergence, Rate 125 g/ha, scale of 0 to 10 where 0 is no effect and 10 is complete control
[4] = Preemergence, Rate 250 g/ha, scale 0 (no effect) to 10 (complete control)
[5] = Rate 62 g/ha, Preemergence, scale 0 to 10
[6] = Rate 250 g/ha, Postemergence, scale 0 to 10, 0 is no effect, 10 is complete control
[7] = Rate 500 g/ha, Postemergence, scale 0 to 10, 0 is no effect, 10 is complete control
[8] = Rate 500 g/ha, Preemergence, scale 0 to 10 (0 no effect, 10 complete control)
[9] = scale of 0 to 10 where 0 is no effect and 10 is complete control
[10] = Rate 250 g/ha, scale 0 (no effect) to 10 (complete control)
[11] = Rate 500 g/ha, scale 0 to 10 (0 no effect, 10 complete control)
[12] = Preemergence, Rate 62 g/ha, scale of 0 to 10 where 0 is no effect and 10 is complete control

## C#CCCn1c(=O)on(C(=O)N(c2ccc(F)cc2F)C(C)C)c1=O [Compound 744]
soybean; [1]
  Plant response rating, Soybean: 2
soybean; [2]
  Soybean plant response rating: 3
soybean; [3]
  Plant response rating, Soybean: 0
soybean; [4]
  Soybean plant response rating: 0
soybean; [5]
  Soybean plant response rating: 0
soybean; [6]
  Soybean plant response rating: 4
soybean; [7]
  Soybean plant response rating: 5
soybean; [8]
  Soybean plant response rating: 0
cocklebur; [1]
  Plant response rating, Cocklebur: 0
cocklebur; [2]
  Cocklebur plant response rating: 0
cocklebur; [3]
  Plant response rating, Cocklebur: 0
cocklebur; [4]
  Cocklebur plant response rating: 0
cocklebur; [5]
  Cocklebur plant response rating: 0
cocklebur; [6]
  Cocklebur plant response rating: 0
cocklebur; [7]
  Cocklebur plant response rating: 0
cocklebur; [8]
  Cocklebur plant response rating: 0
Wild oat; [1]
  Plant response rating, Wild oats: 0
Wild oat; [2]
  Wild oats plant response rating: 0
Wild oat; [3]
  Plant response rating, Wild oats: 8
Wild oat; [4]
  Wild oats plant response rating: 9
Wild oat; [5]
  Wild oats plant response rating: 3
Wild oat; [6]
  Wild oats plant response rating: 0
Wild oat; [7]
  Wild oats plant response rating: 2
Wild oat; [8]
  Wild oats plant response rating: 9
Giant foxtail; [1]
  Plant response rating, Giant foxtail: 6
Giant foxtail; [2]
  Giant foxtail plant response rating: 8
Giant foxtail; [3]
  Plant response rating, Giant foxtail: 9
Giant foxtail; [4]
  Giant foxtail plant response rating: 9
Giant foxtail; [5]
  Giant foxtail plant response rating: 9
Giant foxtail; [6]
  Giant foxtail plant response rating: 8
Giant foxtail; [7]
  Giant foxtail plant response rating: 8
Giant foxtail; [8]
  Giant foxtail plant response rating: 10
Sugar beet; [1]
  Plant response rating, Sugarbeets: 0
Sugar beet; [2]
  Sugarbeets plant response rating: 0
Sugar beet; [3]
  Plant response rating, Sugarbeets: 2
Sugar beet; [4]
  Sugarbeets plant response rating: 7
Sugar beet; [5]
  Sugarbeets plant response rating: 0
Sugar beet; [6]
  Sugarbeets plant response rating: 0
Sugar beet; [7]
  Sugarbeets plant response rating: 5
Sugar beet; [8]
  Sugarbeets plant response rating: 7
blackgrass; [1]
  Plant response rating, Blackgrass: 5
blackgrass; [2]
  Blackgrass plant response rating: 5
blackgrass; [3]
  Plant response rating, Blackgrass: 9
blackgrass; [4]
  Blackgrass plant response rating: 9
blackgrass; [5]
  Blackgrass plant response rating: 6
blackgrass; [6]
  Blackgrass plant response rating: 5
blackgrass; [7]
  Blackgrass plant response rating: 5
blackgrass; [8]
  Blackgrass plant response rating: 9
velvetleaf; [1]
  Plant response rating, Velvetleaf: 0
velvetleaf; [2]
  Velvetleaf plant response rating: 0
velvetleaf; [3]
  Plant response rating, Velvetleaf: 0
velvetleaf; [4]
  Velvetleaf plant response rating: 0
velvetleaf; [5]
  Velvetleaf plant response rating: 0
velvetleaf; [6]
  Velvetleaf plant response rating: 0
velvetleaf; [7]
  Velvetleaf plant response rating: 2
velvetleaf; [8]
  Velvetleaf plant response rating: 2
bedstraw; [9]
  Plant response rating, Bedstraw: 0
bedstraw; [10]
  Bedstraw plant response rating: 0
bedstraw; Rate 62 g/ha, scale 0 to 10
  Bedstraw plant response rating: 0
bedstraw; [11]
  Bedstraw plant response rating: 8
pigweed; [1]
  Plant response rating, Redroot pigweed: 0
pigweed; [2]
  Redroot pigweed plant response rating: 0
pigweed; [3]
  Plant response rating, Redroot pigweed: 8
pigweed; [4]
  Redroot pigweed plant response rating: 9
pigweed; [5]
  Redroot pigweed plant response rating: 4
pigweed; [6]
  Redroot pigweed plant response rating: 0
pigweed; [7]
  Redroot pigweed plant response rating: 8
pigweed; [8]
  Redroot pigweed plant response rating: 9
crabgrass; [1]
  Plant response rating, Crabgrass: 3
crabgrass; [2]
  Crabgrass plant response rating: 4
crabgrass; [3]
  Plant response rating, Crabgrass: 9
crabgrass; [4]
  Crabgrass plant response rating: 9
crabgrass; [5]
  Crabgrass plant response rating: 9
crabgrass; [6]
  Crabgrass plant response rating: 8
crabgrass; [7]
  Crabgrass plant response rating: 9
crabgrass; [8]
  Crabgrass plant response rating: 10
morningglory; [1]
  Plant response rating, Morningglory: 2
morningglory; [2]
  Morningglory plant response rating: 2
morningglory; [3]
  Plant response rating, Morningglory: 0
morningglory; [4]
  Morningglory plant response rating: 0
morningglory; [5]
  Morningglory plant response rating: 0
morningglory; [6]
  Morningglory plant response rating: 2
morningglory; [7]
  Morningglory plant response rating: 4
morningglory; [8]
  Morningglory plant response rating: 0
rape; [1]
  Plant response rating, Rape: 0
rape; [2]
  Rape plant response rating: 2
rape; [3]
  Plant response rating, Rape: 6
rape; [4]
  Rape plant response rating: 6
rape; [5]
  Rape plant response rating: 4
rape; [6]
  Rape plant response rating: 3
rape; [7]
  Rape plant response rating: 8
rape; [8]
  Rape plant response rating: 9
wheat; [1]
  Plant response rating, Wheat: 0
wheat; [2]
  Wheat plant response rating: 0
wheat; [3]
  Plant response rating, Wheat: 0
wheat; [4]
  Wheat plant response rating: 3
wheat; [5]
  Wheat plant response rating: 0
wheat; [6]
  Wheat plant response rating: 5
wheat; [7]
  Wheat plant response rating: 7
wheat; [8]
  Wheat plant response rating: 5
corn; [1]
  Plant response rating, Corn: 0
corn; [2]
  Corn plant response rating: 0
corn; [3]
  Plant response rating, Corn: 0
corn; [4]
  Corn plant response rating: 5
corn; [5]
  Corn plant response rating: 0
corn; [6]
  Corn plant response rating: 3
corn; [7]
  Corn plant response rating: 5
corn; [8]
  Corn plant response rating: 7
Surinam grass; [1]
  Plant response rating, B. signalgrass: 0
Surinam grass; [2]
  B. signalgrass plant response rating: 2
Surinam grass; [12]
  B. signalgrass plant response rating: 5
Surinam grass; [3]
  Plant response rating, B. signalgrass: 8
Surinam grass; [4]
  B. signalgrass plant response rating: 9
Surinam grass; [6]
  B. signalgrass plant response rating: 5
Surinam grass; [7]
  B. signalgrass plant response rating: 6
Surinam grass; [8]
  B. signalgrass plant response rating: 9
Purple nutsedge; [1]
  Plant response rating, Nutsedge: 0
Purple nutsedge; [3]
  Plant response rating, Nutsedge: 0
Purple nutsedge; [4]
  Nutsedge plant response rating: 5
Purple nutsedge; [6]
  Nutsedge plant response rating: 3
Purple nutsedge; [7]
  Nutsedge plant response rating: 6
Purple nutsedge; [8]
  Nutsedge plant response rating: 7

## COCC(OC)n1c(=O)on(C(=O)N(c2ccc(Cl)cc2)C(C)C)c1=O (stereo not drawn) [Compound 726]
soybean; [12]
  Soybean plant response rating: 0
soybean; [3]
  Plant response rating, Soybean: 0
soybean; [4]
  Soybean plant response rating: 0
soybean; [8]
  Soybean plant response rating: 0
cocklebur; [12]
  Cocklebur plant response rating: 0
cocklebur; [3]
  Plant response rating, Cocklebur: 0
cocklebur; [4]
  Cocklebur plant response rating: 0
cocklebur; [8]
  Cocklebur plant response rating: 0
Wild oat; [12]
  Wild oats plant response rating: 1
Wild oat; [3]
  Plant response rating, Wild oats: 7
Wild oat; [4]
  Wild oats plant response rating: 8
Wild oat; [8]
  Wild oats plant response rating: 9
Giant foxtail; [12]
  Giant foxtail plant response rating: 9
Giant foxtail; [3]
  Plant response rating, Giant foxtail: 9
Giant foxtail; [4]
  Giant foxtail plant response rating: 10
Giant foxtail; [8]
  Giant foxtail plant response rating: 10
Sugar beet; [12]
  Sugarbeets plant response rating: 0
Sugar beet; [3]
  Plant response rating, Sugarbeets: 0
Sugar beet; [4]
  Sugarbeets plant response rating: 5
Sugar beet; [8]
  Sugarbeets plant response rating: 5
blackgrass; [12]
  Blackgrass plant response rating: 7
blackgrass; [3]
  Plant response rating, Blackgrass: 8
blackgrass; [4]
  Blackgrass plant response rating: 8
blackgrass; [8]
  Blackgrass plant response rating: 9
velvetleaf; [12]
  Velvetleaf plant response rating: 0
velvetleaf; [3]
  Plant response rating, Velvetleaf: 0
velvetleaf; [4]
  Velvetleaf plant response rating: 0
velvetleaf; [8]
  Velvetleaf plant response rating: 0
bedstraw; Rate 62 g/ha, scale of 0 to 10 where 0 is no effect and 10 is complete control
  Bedstraw plant response rating: 0
bedstraw; [9]
  Plant response rating, Bedstraw: 0
bedstraw; [10]
  Bedstraw plant response rating: 0
bedstraw; [11]
  Bedstraw plant response rating: 0
pigweed; [12]
  Redroot pigweed plant response rating: 0
pigweed; [3]
  Plant response rating, Redroot pigweed: 4
pigweed; [4]
  Redroot pigweed plant response rating: 7
pigweed; [8]
  Redroot pigweed plant response rating: 8
crabgrass; [12]
  Crabgrass plant response rating: 9
crabgrass; [3]
  Plant response rating, Crabgrass: 9
crabgrass; [4]
  Crabgrass plant response rating: 9
crabgrass; [8]
  Crabgrass plant response rating: 10
morningglory; [12]
  Morningglory plant response rating: 0
morningglory; [3]
  Plant response rating, Morningglory: 0
morningglory; [4]
  Morningglory plant response rating: 1
morningglory; [8]
  Morningglory plant response rating: 1
rape; [12]
  Rape plant response rating: 0
rape; [3]
  Plant response rating, Rape: 0
rape; [4]
  Rape plant response rating: 0
rape; [8]
  Rape plant response rating: 7
wheat; [12]
  Wheat plant response rating: 0
wheat; [3]
  Plant response rating, Wheat: 0
wheat; [4]
  Wheat plant response rating: 0
wheat; [8]
  Wheat plant response rating: 0
corn; [12]
  Corn plant response rating: 0
corn; [3]
  Plant response rating, Corn: 0
corn; [4]
  Corn plant response rating: 0
corn; [8]
  Corn plant response rating: 2
Surinam grass; [12]
  B. signalgrass plant response rating: 4
Surinam grass; [3]
  Plant response rating, B. signalgrass: 7
Surinam grass; [4]
  B. signalgrass plant response rating: 7
Surinam grass; [8]
  B. signalgrass plant response rating: 9
Purple nutsedge; [12]
  Nutsedge plant response rating: 0
Purple nutsedge; [3]
  Plant response rating, Nutsedge: 0
Purple nutsedge; [4]
  Nutsedge plant response rating: 0
Purple nutsedge; [8]
  Nutsedge plant response rating: 0
